Results as given in DBAASP.
Converted amounts (≈) assume the structure as drawn.

Tests used:
Test in all cases: ≥ marks a high value that may be exact or a test limit, other limits are often not marked, values filed in µg/mL are converted to µM
[1] = tested on: Escherichia coli ATCC 25922
[2] = tested on: Pseudomonas aeruginosa 21328
[3] = tested on: Pseudomonas aeruginosa 25349
[4] = tested on: Pseudomonas aeruginosa CICC 10419
[5] = tested on: Pseudomonas aeruginosa CICC 11411
[6] = tested on: Pseudomonas aeruginosa CICC 11421
[7] = tested on: Pseudomonas aeruginosa CICC 11431
[8] = tested on: Pseudomonas aeruginosa CICC 21625
[9] = tested on: Pseudomonas aeruginosa CICC 21630
[10] = tested on: Staphylococcus aureus ATCC 29213
[11] = tested on: Streptococcus mutans ATCC UA159
[12] = tested on: Candida albicans NCYC 1467
[13] = tested on: Enterococcus faecalis NCTC 12697
[14] = tested on: Escherichia coli NCTC 10418
[15] = tested on: Pseudomonas aeruginosa ATCC 27853
[16] = tested on: Staphylococcus aureus NCTC 10788
[17] = tested on: Staphylococcus aureus NCTC 12493
[18] = tested on: Acinetobacter baumannii ATCC 17978
Acinetobacter baumannii = tested on: Acinetobacter baumannii
Candida albicans 17-88 = tested on: Candida albicans 17-88
[19] = tested on: Candida albicans NRRL Y-326
[20] = tested on: Candida albicans NRRL Y-6359
Candida albicans = tested on: Candida albicans
Candida dubliniensis = tested on: Candida dubliniensis
Candida glabrata = tested on: Candida glabrata
Candida krusei = tested on: Candida krusei
[21] = tested on: Candida parapsilosis NRRL Y-1761
[22] = tested on: Candida parapsilosis NRRL Y-1763
Candida parapsilosis = tested on: Candida parapsilosis
Candida tropicalis = tested on: Candida tropicalis
[23] = tested on: Cutibacterium acnes ATCC 11827
[24] = tested on: Cutibacterium acnes ATCC 6919
Cutibacterium acnes = tested on: Cutibacterium acnes
Debaryomyces hansenii = tested on: Debaryomyces hansenii
Enterobacter cloacae = tested on: Enterobacter cloacae
[25] = tested on: Klebsiella pneumoniae ATCC 10031
Klebsiella pneumoniae = tested on: Klebsiella pneumoniae
Kluyveromyces lactis = tested on: Kluyveromyces lactis
[26] = tested on: Pseudomonas aeruginosa ATCC 19660
Pseudomonas aeruginosa = tested on: Pseudomonas aeruginosa
[27] = tested on: Staphylococcus aureus ATCC 33592
Staphylococcus aureus MR = tested on: Staphylococcus aureus MR
Staphylococcus aureus = tested on: Staphylococcus aureus
[28] = tested on: Staphylococcus epidermidis ATCC 51625

Work on CC(C)C[C@H](NC(=O)[C@H](CCCN=C(N)N)NC(=O)[C@H](CCCN=C(N)N)NC(=O)[C@H](CC(C)C)NC(=O)[C@H](CCCN=C(N)N)NC(=O)[C@H](CCCN=C(N)N)NC(=O)[C@H](CCCN=C(N)N)NC(=O)[C@H](Cc1c[nH]c2ccccc12)NC(=O)[C@H](Cc1c[nH]c2ccccc12)NC(=O)[C@H](CCCN=C(N)N)NC(=O)[C@H](CCCN=C(N)N)NC(=O)[C@H](CCCN=C(N)N)NC(=O)[C@H](CC(C)C)NC(=O)[C@H](CCCN=C(N)N)NC(=O)[C@H](CCCN=C(N)N)NC(=O)[C@@H](N)CC(C)C)C(N)=O [LRRLRRRWWRRRLRRL] yielded an MIC [1] of 6.65 µM (≈ 16 µg/mL), an MIC [2] of 13.3 µM (≈ 32 µg/mL) and an MIC [3] of 4.7 µM (≈ 11.3 µg/mL). The MIC [4] was 6.65 µM (≈ 16 µg/mL), the MIC [5] was 3.33 µM (≈ 8 µg/mL) and the MIC [6] was 6.65 µM (≈ 16 µg/mL). It also gave an MIC [7] of 6.65 µM (≈ 16 µg/mL), an MIC [8] of 6.65 µM (≈ 16 µg/mL) and an MIC [9] of 3.33 µM (≈ 8 µg/mL). The MIC [10] was 3.33 µM (≈ 8 µg/mL).
Work on CC[C@H](C)[C@H](NC(=O)[C@H](CCCCN)NC(=O)[C@H](CCCN=C(N)N)NC(=O)[C@@H](NC(=O)[C@@H](N)Cc1ccc(O)cc1)[C@@H](C)CC)C(=O)N[C@@H](CCCN=C(N)N)C(=O)N[C@@H](CCCN=C(N)N)C(=O)N[C@@H](Cc1ccccc1)C(=O)N[C@@H](Cc1ccccc1)C(=O)N[C@@H](CCCCN)C(=O)N[C@H](C(=O)N[C@@H](CC(C)C)C(=O)N[C@@H](CC(N)=O)C(=O)N[C@@H](CCCCN)C(=O)N[C@@H](CC(N)=O)C(=O)N[C@@H](CC(C)C)C(=O)N[C@@H](CCCCN)C(=O)N[C@@H](CCCCN)C(N)=O)[C@@H](C)O [YIRKIRRFFKTLNKNLKK] yielded an MIC [11] of 13.5 µM (≈ 32 µg/mL).
In the case of CSCC[C@H](NC(=O)[C@H](CC(=O)O)NC(=O)[C@@H](NC(=O)[C@@H](NC(=O)[C@H](C)NC(=O)[C@H](CC(N)=O)NC(=O)[C@H](CC(C)C)NC(=O)[C@H](C)NC(=O)[C@H](C)NC(=O)[C@H](CCCCN)NC(=O)CNC(=O)[C@H](C)NC(=O)[C@H](C)NC(=O)[C@H](CCCCN)NC(=O)CNC(=O)[C@@H](NC(=O)[C@H](Cc1cnc[nH]1)NC(=O)[C@H](CCCCN)NC(=O)[C@H](CC(C)C)NC(=O)[C@H](CC(C)C)NC(=O)[C@@H](NC(=O)[C@H](CCCCN)NC(=O)[C@H](Cc1c[nH]c2ccccc12)NC(=O)[C@H](CC(C)C)NC(=O)[C@H](C)N)[C@@H](C)O)C(C)C)C(C)C)[C@@H](C)O)C(=O)N[C@H](C(=O)N[C@@H](CC(N)=O)C(=O)N[C@@H](CCC(N)=O)C(N)=O)C(C)C [ALWKTLLKHVGKAAGKAALNAVTDMVNQ], the MIC [12] is reported as 4 µM (≈ 11.8 µg/mL), the MIC [13] is reported as at least 32 µM and the MIC [14] is reported as 8 µM (≈ 23.6 µg/mL). It also gave an MIC [15] of 16 µM (≈ 47.2 µg/mL), an MIC [16] of 4 µM (≈ 11.8 µg/mL) and an MIC [17] of 8 µM (≈ 23.6 µg/mL).
CC[C@H](C)[C@@H]1NC(=O)CNC(=O)[C@H](CCCCN)NC(=O)[C@H](Cc2ccc(O)cc2)NC(=O)[C@@H]2CSSC[C@H](NC1=O)C(=O)N[C@@H](Cc1ccccc1)C(=O)N[C@@H](CCCCN)C(=O)N[C@@H](CCCCN)C(=O)N[C@H](C(=O)N[C@@H](CCCCN)C(N)=O)CSSC[C@H](NC(=O)[C@H](Cc1ccccc1)NC(=O)[C@@H](N)CCCN=C(N)N)C(=O)N[C@@H](Cc1c[nH]c3ccccc13)C(=O)N[C@@H](CCCCN)C(=O)N[C@@H](C(C)C)C(=O)N2 [RFCWKVCYKGICFKKCK] showed an MIC [18] of 7.47 µM (≈ 16 µg/mL), an MIC (Acinetobacter baumannii) of 3.74 µM (≈ 7.98 µg/mL) and an MIC (Candida albicans 17-88) of 15 µM (≈ 32 µg/mL). For the same compound, the MIC [19] was 7.47 µM (≈ 16 µg/mL), the MIC [20] was 1.87 µM (≈ 3.99 µg/mL) and the MIC (Candida albicans) was 10.6 µM (≈ 22.7 µg/mL). For the same compound, the MIC (Candida dubliniensis) was 7.5 µM (≈ 16 µg/mL), the MIC (Candida glabrata) was 15 µM (≈ 32 µg/mL) and the MIC (Candida krusei) was 10.6 µM (≈ 22.7 µg/mL). The MIC [21] was 7.47 µM (≈ 16 µg/mL), the MIC [22] was 0.934 µM (≈ 2 µg/mL) and the MIC (Candida parapsilosis) was 15 µM (≈ 32 µg/mL). For the same compound, the MIC (Candida tropicalis) was 2.65 µM (≈ 5.66 µg/mL), the MIC [23] was 3.74 µM (≈ 7.98 µg/mL) and the MIC [24] was 3.74 µM (≈ 7.98 µg/mL). For the same compound, the MIC (Cutibacterium acnes) was 1.87 µM (≈ 3.99 µg/mL), the MIC (Debaryomyces hansenii) was 7.5 µM (≈ 16 µg/mL) and the MIC (Enterobacter cloacae) was 3.74 µM (≈ 7.98 µg/mL). It also gave an MIC [25] of 3.74 µM (≈ 7.98 µg/mL), an MIC (Klebsiella pneumoniae) of 2.64 µM (≈ 5.64 µg/mL) and an MIC (Kluyveromyces lactis) of 3.7 µM (≈ 7.9 µg/mL). It also gave an MIC [26] of 1.87 µM (≈ 3.99 µg/mL), an MIC [15] of 1.87 µM (≈ 3.99 µg/mL) and an MIC (Pseudomonas aeruginosa) of 1.87 µM (≈ 3.99 µg/mL). The MIC [27] was 1.87 µM (≈ 3.99 µg/mL), the MIC (Staphylococcus aureus MR) was 1.87 µM (≈ 3.99 µg/mL) and the MIC (Staphylococcus aureus) was 2.64 µM (≈ 5.64 µg/mL). For the same compound, the MIC [28] was 3.74 µM (≈ 7.98 µg/mL).
